Assay [1] concerns the target T1, cGAS (Homo sapiens, UniProt Q8N884). Description: Cellular assay to measure cGAS activity (IFNb AlphaLISA in THP1 cells stimulated by RDG-Adenovirus-GFP). The format is cell-based. Set-up: host or cells: THP1 cells differentiated with PMA and stimulated with RDG-Adenovirus-GFP. The settings on record: PMA-differentiated THP1 cells, RDG-Adenovirus-GFP at 1000 MOI; inhibition of IFNb production as marker for cGAS activity. An outline of the steps:
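The readout is secreted IFNb measured by AlphaLISA after overnight compound exposure. THP1 cells, differentiated with PMA for 24 h and rested overnight, were infected with RDG-Adenovirus-GFP (1000 MOI, 4 h) before compounds were added; IC50 came from a 4-parameter logistic fit of inhibition against log concentration.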

Assay [2] has as its target T1, cGAS. Briefly: In vitro inhibition assay of cGAS activity (cGAMP production, RapidFire mass spectrometry). The format is biochemical. The conditions noted are these: 10 nM recombinant human cGAS, 60 nM 75-bp dsDNA, 50 μM ATP, 50 μM GTP, 3 hrs. Also noted: Insert cDNA encoding full-length of human cGAS; His6; made in house; host or cells: E. coli BL21(DE3). In short, it runs like this:
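Reactions in 10 mM Tris-Cl pH 7.5, 5 mM MgCl2, 0.01% Triton X-100 contained serially diluted compound, 10 nM recombinant cGAS, dsDNA activator and 50 μM each of ATP and GTP, run 3 hrs at ambient temperature. After formic acid quench, cGAMP output was measured by mass spectrometry and percent inhibition versus log concentration was fitted for IC50.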

The values below come from patent US20240246979A1, “cGAS INHIBITORS” (Eli Lilly and Company, priority 2022, published 2024).

T1 sequence (Q8N884 whole entry): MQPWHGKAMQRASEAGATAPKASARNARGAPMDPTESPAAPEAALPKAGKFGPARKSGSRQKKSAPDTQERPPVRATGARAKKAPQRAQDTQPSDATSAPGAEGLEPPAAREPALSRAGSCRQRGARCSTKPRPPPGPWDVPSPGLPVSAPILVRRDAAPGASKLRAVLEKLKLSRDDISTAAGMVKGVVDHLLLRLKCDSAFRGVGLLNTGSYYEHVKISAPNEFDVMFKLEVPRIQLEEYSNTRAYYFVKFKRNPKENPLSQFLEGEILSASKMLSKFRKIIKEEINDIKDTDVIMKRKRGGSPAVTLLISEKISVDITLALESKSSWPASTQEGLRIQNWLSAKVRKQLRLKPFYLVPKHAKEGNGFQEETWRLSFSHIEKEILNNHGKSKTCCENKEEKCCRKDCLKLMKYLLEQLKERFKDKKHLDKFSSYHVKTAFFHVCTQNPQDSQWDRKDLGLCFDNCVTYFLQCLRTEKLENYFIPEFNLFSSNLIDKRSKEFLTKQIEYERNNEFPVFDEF

On to `CC1C(=O)NCCc2[nH]c3c(Cl)c(Cl)cc(OCC(F)(F)CO)c3c21` (centres unmarked) [Example 72, 7,8-Dichloro-10-(2,2-difluoro-3-hydroxypropoxy)-1-methyl-3,4,5,6-tetrahydroazepino[4,5-b]indol-2(1H)-one], for which the half-inhibitory concentration (IC50) amounted to 662 nM against cGAS [1] and 23.3 nM on cGAS [2].

For `CC1C(=O)NCCc2[nH]c3c(Cl)c(Cl)cc(OCCF)c3c21` (centres unmarked) [Example 75, 7,8-Dichloro-10-(2-fluoroethoxy)-1-methyl-3,4,5,6-tetrahydroazepino[4,5-b]indol-2(1H)-one], the IC50 on cGAS [1] was 1150 nM; on cGAS [2], 19 nM.

Turning to `CC1C(=O)NCCc2c1c1c(OCCCO)cc(Cl)c(Cl)c1n2C` (centres unmarked) [Example 77, 7,8-Dichloro-10-(3-hydroxypropoxy)-1,6-dimethyl-3,4,5,6-tetrahydroazepino[4,5-b]indol-2(1H)-one], the values for the IC50 against cGAS [1] and on cGAS [2] were 843 nM and 14.1 nM, respectively.

As to `CC1C(=O)NCCc2c1c1c(OCC#N)cc(Cl)c(Cl)c1n2C` (centres unmarked) [Example 78, 2-((7,8-Dichloro-1,6-dimethyl-2-oxo-1,2,3,4,5,6-hexahydroazepino[4,5-b]indol-10-yl)oxy)acetonitrile], the IC50 stood at 810 nM against cGAS [1] and 46.5 nM on cGAS [2].

`COCCOc1cc(Cl)c(Cl)c2[nH]c3c(c12)C(C)C(=O)NCC3` (centres unmarked) [Example 79, 7,8-Dichloro-10-(2-methoxyethoxy)-1-methyl-3,4,5,6-tetrahydroazepino[4,5-b]indol-2(1H)-one]: the figures for the IC50 against cGAS [1] and at cGAS [2] were 591 nM and 14.2 nM, respectively.

With `CC(O)COc1cc(Cl)c(Cl)c2[nH]c3c(c12)CC(=O)NCC3` (centres unmarked) [Example 87, 7,8-Dichloro-10-(2-hydroxypropoxy)-3,4,5,6-tetrahydroazepino[4,5-b]indol-2(1H)-one], the IC50 against cGAS [1] worked out at 5970 nM; on cGAS [2], 36 nM.

As for `CC1C(=O)NCCc2[nH]c3c(Cl)c(Cl)cc(CCCO)c3c21` (centres unmarked) [Example 88, 7,8-Dichloro-10-(3-hydroxypropyl)-1-methyl-3,4,5,6-tetrahydroazepino[4,5-b]indol-2(1H)-one], the IC50 against cGAS [1] came to 3230 nM; at cGAS [2] it was 36.1 nM.

Consider `CC1C(=O)NCCc2c1c1c(NCc3cnc[nH]3)cc(Cl)c(Cl)c1n2C` (centres unmarked) [Example 91, 10-(((1H-Imidazol-5-yl)methyl)amino)-7,8-dichloro-1,6-dimethyl-3,4,5,6-tetrahydroazepino[4,5-b]indol-2(1H)-one], for which the IC50 against cGAS [1] worked out at 1190 nM; at cGAS [2], 20.7 nM.

Consider `COCCNc1cc(Cl)c(Cl)c2c1c1c(n2C)CCNC(=O)C1C` (centres unmarked) [Example 96, 7,8-Dichloro-10-((2-methoxyethyl)amino)-1,6-dimethyl-3,4,5,6-tetrahydroazepino[4,5-b]indol-2(1H)-one], for which the concentration for half-maximal inhibition (IC50) on cGAS [1] is > 10000 nM; on cGAS [2], 18.6 nM.

Consider `COCCOc1cc(Cl)c(Cl)c2c1c1c(n2C)CCNC(=O)C1C` (centres unmarked) [Example 97, 7,8-Dichloro-10-(2-methoxyethoxy)-1,6-dimethyl-3,4,5,6-tetrahydroazepino[4,5-b]indol-2(1H)-one], for which the figures for the IC50 against cGAS [1] and at cGAS [2] were 1150 nM and 18 nM, respectively.

With `Cn1ncc(-c2cc(Cl)c(Cl)c3[nH]c4c(c23)CC(=O)NCC4CC(C)(C)O)n1` (centres unmarked) [Example 102, 7,8-Dichloro-5-(2-hydroxy-2-methylpropyl)-10-(2-methyl-2H-1,2,3-triazol-4-yl)-3,4,5,6-tetrahydroazepino[4,5-b]indol-2(1H)-one], the IC50 at cGAS [1] amounted to 727 nM; on cGAS [2] it was 23.2 nM.

As to `Cn1ncc(-c2cc(Cl)c(Cl)c3c2c2c(n3C)C(CC(C)(C)O)CNC(=O)C2)n1` (centres unmarked) [Example 105, 7,8-Dichloro-5-(2-hydroxy-2-methylpropyl)-6-methyl-10-(2-methyl-2H-1,2,3-triazol-4-yl)-3,4,5,6-tetrahydroazepino[4,5-b]indol-2(1H)-one], the IC50 against cGAS [1] was determined as 3250 nM; on cGAS [2], 38.8 nM.

In the case of `Cn1ncc(-c2cc(Cl)c(Cl)c3[nH]c4c(c23)CC(=O)NCC4CCNCC(F)(F)F)n1` (centres unmarked) [Example 112, 7,8-Dichloro-10-(2-methyl-2H-1,2,3-triazol-4-yl)-5-(2-((2,2,2-trifluoroethyl)amino)ethyl)-3,4,5,6-tetrahydroazepino[4,5-b]indol-2(1H)-one], the IC50 was 2600 nM against cGAS [1] and 51.5 nM on cGAS [2].

With `N#CCc1cc(Cl)c(Cl)c2[nH]c3c(c12)CC(=O)NCC3CCO` (centres unmarked) [Example 113, 2-(7,8-Dichloro-5-(2-hydroxyethyl)-2-oxo-1,2,3,4,5,6-hexahydroazepino[4,5-b]indol-10-yl)acetonitrile], the IC50 against cGAS [1] was 1740 nM; on cGAS [2], 37.3 nM.

Regarding `N#CCc1cc(Cl)c(Cl)c2c1c1c3n2CCC3CNC(=O)C1` (centres unmarked) [Example 114, 2-(8,9-Dichloro-2-oxo-2,3,4,4a, 5,6-hexahydro-1H-azepino[3,4,5-gh]benzo[b]pyrrolizin-11-yl)acetonitrile], the IC50 at cGAS [1] was found to be 1270 nM; on cGAS [2], 38.4 nM.

For the compound `N#CCOc1cc(Cl)c(Cl)c2c1c1c3n2CCC3CNC(=O)C1` (centres unmarked) [Example 115, 2-((8,9-Dichloro-2-oxo-2,3,4,4a, 5,6-hexahydro-1H-azepino[3,4,5-gh]benzo[b]pyrrolizin-11-yl)oxy)acetonitrile], the results for the IC50 at cGAS [1] and at cGAS [2] were 1950 nM and 22.4 nM, respectively.

Turning to `Cn1ncc(-c2cc(Cl)c(Cl)c3c2c2c4n3CCC4CNC(=O)C2)n1` (centres unmarked) [Example 116, 8,9-Dichloro-11-(2-methyl-2H-1,2,3-triazol-4-yl)-1,3,4,4a, 5,6-hexahydro-2H-azepino[3,4,5-gh]benzo[b]pyrrolizin-2-one], the IC50 at cGAS [1] came to 640 nM; on cGAS [2], 14.8 nM.

Take `CN(C)C(=O)CC1CNC(=O)Cc2c1[nH]c1c(Cl)c(Cl)cc(CC#N)c21` (centres unmarked) [Example 117, 2-(7,8-Dichloro-10-(cyanomethyl)-2-oxo-1,2,3,4,5,6-hexahydroazepino[4,5-b]indol-5-yl)-N,N-dimethylacetamide]: the IC50 at cGAS [1] amounted to 1320 nM; at cGAS [2], 18.6 nM.

As to `CN(C)CCC1CNC(=O)Cc2c1[nH]c1c(Cl)c(Cl)cc(-c3cnn(C)n3)c21` (centres unmarked) [Example 118, 7,8-Dichloro-5-(2-(dimethylamino)ethyl)-10-(2-methyl-2H-1,2,3-triazol-4-yl)-3,4,5,6-tetrahydroazepino[4,5-b]indol-2(1H)-one], the IC50 came to 577 nM at cGAS [1] and 42.4 nM on cGAS [2].

As for `CC(O)CC1CNC(=O)Cc2c1[nH]c1c(Cl)c(Cl)cc(-c3cnn(C)n3)c21` (centres unmarked) [Example 119, 7,8-Dichloro-5-(2-hydroxypropyl)-10-(2-methyl-2H-1,2,3-triazol-4-yl)-3,4,5,6-tetrahydroazepino[4,5-b]indol-2(1H)-one], the IC50 came to 487 nM at cGAS [1] and 23.2 nM at cGAS [2].

Take `CC(O)CC1CNC(=O)Cc2c1[nH]c1c(Cl)c(Cl)cc(CC#N)c21` (centres unmarked) [Example 120, 2-(7,8-Dichloro-5-(2-hydroxypropyl)-2-oxo-1,2,3,4,5,6-hexahydroazepino[4,5-b]indol-10-yl)acetonitrile]: the figures for the IC50 against cGAS [1] and at cGAS [2] were 716 nM and 11.9 nM, respectively.

Take `Cn1c2c(c3c(CC#N)cc(Cl)c(Cl)c31)CC(=O)NCC2CCO` (centres unmarked) [Example 121, 2-(7,8-Dichloro-5-(2-hydroxyethyl)-6-methyl-2-oxo-1,2,3,4,5,6-hexahydroazepino[4,5-b]indol-10-yl)acetonitrile]: the IC50 turned out to be 180 nM against cGAS [1] and 17.2 nM at cGAS [2].

Turning to `Cn1c2c(c3c(OCC#N)cc(Cl)c(Cl)c31)CC(=O)NCC2CCO` (centres unmarked) [Example 124, 2-((7,8-Dichloro-5-(2-hydroxyethyl)-6-methyl-2-oxo-1,2,3,4,5,6-hexahydroazepino[4,5-b]indol-10-yl)oxy)acetonitrile], the half-maximal inhibitory concentration (IC50) on cGAS [1] worked out at 468 nM; at cGAS [2], 32.3 nM.

Take `Cn1ncc(-c2cc(Cl)c(Cl)c3c2c2c(n3C)C(CCO)CNC(=O)C2)n1` (centres unmarked) [Example 127, 7,8-Dichloro-5-(2-hydroxyethyl)-6-methyl-10-(2-methyl-2H-1,2,3-triazol-4-yl)-3,4,5,6-tetrahydroazepino[4,5-b]indol-2(1H)-one]: the results for the IC50 against cGAS [1] and on cGAS [2] were 1210 nM and 34.4 nM, respectively.

On to `CC1C(=O)NCC(C)(C)c2[nH]c3c(Cl)c(Cl)cc(NCCO)c3c21` (centres unmarked) [Example 131, 7,8-Dichloro-10-((2-hydroxyethyl)amino)-1,5,5-trimethyl-3,4,5,6-tetrahydroazepino[4,5-b]indol-2(1H)-one], for which the 50% inhibitory concentration (IC50) against cGAS [1] was 2720 nM; at cGAS [2], 53.3 nM.

On to `COCCNc1cc(Cl)c(Cl)c2c1c1c(n2C(F)F)CCNC(=O)C1C` (centres unmarked) [Example 141, 7,8-Dichloro-6-(difluoromethyl)-10-((2-methoxyethyl)amino)-1-methyl-3,4,5,6-tetrahydroazepino[4,5-b]indol-2(1H)-one], for which the results for the IC50 against cGAS [1] and on cGAS [2] were 2440 nM and 35.4 nM, respectively.

Turning to `CC1C(=O)NCCc2c1c1c(NC(=O)CO)cc(Cl)c(Cl)c1n2C(F)F` (centres unmarked) [Example 144, N-(7,8-Dichloro-6-(difluoromethyl)-1-methyl-2-oxo-1,2,3,4,5,6-hexahydroazepino[4,5-b]indol-10-yl)-2-hydroxyacetamide], the IC50 at cGAS [1] was 649 nM; on cGAS [2], 22.5 nM.

For the compound `CCC1CNC(=O)Cc2c1[nH]c1c(Cl)c(Cl)cc(-c3cnn(C)n3)c21` (centres unmarked) [Example 162, 7,8-Dichloro-5-ethyl-10-(2-methyl-2H-1,2,3-triazol-4-yl)-3,4,5,6-tetrahydroazepino[4,5-b]indol-2(1H)-one], the IC50 at cGAS [1] worked out at 1280 nM; on cGAS [2], 48.7 nM.
